Laboratory results reported in patent US10759812B2, “Thienopyrimidine derivative and use thereof in medicine” (SUNSHINE LAKE PHARMA CO., LTD., priority 2017, dated 2020).

What was measured:
ACC1 = ACC1 (Homo sapiens (Human), UniProt Q13085); test: Acetyl-CoA carboxylase inhibition activity assay in vitro (ADP-Glo kinase assay), ACC1; type: biochemical; conditions: 1 nM ACC1, 5% DMSO, 25° C.
Experimental: (§1) The inhibitory action of the compounds against ACC1 or ACC2 was determined by using ADP-Clo™ kinase assay kit from Promega. The ADP-Glo™ Kinase Assay is a luminescent ADP detection assay to measure enzymatic activity by quantifying the amount of ADP produced during an enzyme reaction. The assay is performed in two steps; first, after the enzyme reaction, an equal volume of ADP-Glo™ Reagent is added to terminate the reaction and deplete the remaining ATP. Second, the Kinase Detection Reagent is added to simultaneously convert ADP to ATP and allow the newly synthesized ATP to be measured using a luciferase/luciferin reaction. Luminescence can be correlated to ADP concentrations by using an ATP-to-ADP conversion curve.
(§2) The detailed procedure is as follows. • a. 4.5 μL/well of ACC1/ACC2 working solution (2.22 nM) was added to a 384-well reaction plate (PerkinElmer, 6007290). • b. The compound (10 mM) was diluted with 100% DMSO 500 times to a concentration of 20 μM, the dilute compound solution was diluted 1:3 in succession in a 384-well dilution plate (3657, corning) to gradient concentrations of 20, 6.67, 2.22, 0.74, 0.25, 0.082, 0.027, 0.009, 0.003, 0.001, 0 μM; • c. 0.5 μL/well of the compound solution (prepared in step b) was added to the 384-well reaction plate (prepared in step a), the plate was centrifuged at 1000 rpm and incubated at 25° C. for 15 minutes; • d. 0.5 μL/well of substrate mixture (ATP (10 mM), Acetyl-CoA (2 mM), NaHCO3 (1000 mM)) was transfered into the 384-well reaction plate, the plate was centrifuged at 1000 rpm and incubated at 25° C. for 30 minutes. The compound final gradient concentrations in the reaction system were 1000, 333.3, 111.1, 37.04, 12.35, 4.12, 1.37, 0.46, 0.15, 0.05, 0 nM. The final concentration of DMSO was 5%; the final concentration of ACC1/ACC2 is 1 nM. • e. 10 μL/well of ADP-Glo solution was transfered into the 384-well reaction plate, the plate was centrifuged at 1000 rpm and incubated at 25° C. for 40 minutes. • f. 20 µL/well of kinase detection reagent was transfered into the 384-well reaction plate, the plate was centrifuged at 1000 rpm and incubated at 25° C. for 40 minutes. • g. Relative Light Units (RLU) was read on an Envision multifunction plate reader. The signal intensity represents the level of ACC1/ACC2 kinase activity.
(§3) The ACC1/ACC2 working solution, substrate mixture, ADP-Glo solution and kinase detection reagent used in the assay are all prepared by using 1× kinase reaction buffer [hydroxyethylpiperazineethanesulfonic acid (HEPES, 50 mM), MgCl2 (2 mM), lauryl polyglycol ether (BRIJ-35, 0.01%), potassium citrate (2 mM), bovine serum albumin (BSA, 50 μg/mL), dithiothreitol (DTT, 2 mM)].
(§4) Data for each concentration, as well as the positive and negative controls were averaged, and the standard deviation was calculated. Percent inhibition was calculated by the formula: 100×(average negative control−compound)/(average negative control−average positive control). The IC50 for each compound was calculated by fitting the data with a nonlinear regression equation: Y=Bottom+(Top−Bottom)/(1+10^((Log IC50−X)×HillSlope)), where X is the log of compound concentration and Y is percent inhibition. 0.1 μM ND-630 was as positive control in the assay.

ACC2 = ACC2 (Homo sapiens (Human), UniProt O00763); test: Acetyl-CoA carboxylase inhibition activity assay in vitro (ADP-Glo kinase assay), ACC2; type: biochemical; conditions: 1 nM ACC2, 5% DMSO, 25° C.
Experimental: as §1, §2, §3, §4

Chain of ACC2 (O00763 whole entry, species assumed): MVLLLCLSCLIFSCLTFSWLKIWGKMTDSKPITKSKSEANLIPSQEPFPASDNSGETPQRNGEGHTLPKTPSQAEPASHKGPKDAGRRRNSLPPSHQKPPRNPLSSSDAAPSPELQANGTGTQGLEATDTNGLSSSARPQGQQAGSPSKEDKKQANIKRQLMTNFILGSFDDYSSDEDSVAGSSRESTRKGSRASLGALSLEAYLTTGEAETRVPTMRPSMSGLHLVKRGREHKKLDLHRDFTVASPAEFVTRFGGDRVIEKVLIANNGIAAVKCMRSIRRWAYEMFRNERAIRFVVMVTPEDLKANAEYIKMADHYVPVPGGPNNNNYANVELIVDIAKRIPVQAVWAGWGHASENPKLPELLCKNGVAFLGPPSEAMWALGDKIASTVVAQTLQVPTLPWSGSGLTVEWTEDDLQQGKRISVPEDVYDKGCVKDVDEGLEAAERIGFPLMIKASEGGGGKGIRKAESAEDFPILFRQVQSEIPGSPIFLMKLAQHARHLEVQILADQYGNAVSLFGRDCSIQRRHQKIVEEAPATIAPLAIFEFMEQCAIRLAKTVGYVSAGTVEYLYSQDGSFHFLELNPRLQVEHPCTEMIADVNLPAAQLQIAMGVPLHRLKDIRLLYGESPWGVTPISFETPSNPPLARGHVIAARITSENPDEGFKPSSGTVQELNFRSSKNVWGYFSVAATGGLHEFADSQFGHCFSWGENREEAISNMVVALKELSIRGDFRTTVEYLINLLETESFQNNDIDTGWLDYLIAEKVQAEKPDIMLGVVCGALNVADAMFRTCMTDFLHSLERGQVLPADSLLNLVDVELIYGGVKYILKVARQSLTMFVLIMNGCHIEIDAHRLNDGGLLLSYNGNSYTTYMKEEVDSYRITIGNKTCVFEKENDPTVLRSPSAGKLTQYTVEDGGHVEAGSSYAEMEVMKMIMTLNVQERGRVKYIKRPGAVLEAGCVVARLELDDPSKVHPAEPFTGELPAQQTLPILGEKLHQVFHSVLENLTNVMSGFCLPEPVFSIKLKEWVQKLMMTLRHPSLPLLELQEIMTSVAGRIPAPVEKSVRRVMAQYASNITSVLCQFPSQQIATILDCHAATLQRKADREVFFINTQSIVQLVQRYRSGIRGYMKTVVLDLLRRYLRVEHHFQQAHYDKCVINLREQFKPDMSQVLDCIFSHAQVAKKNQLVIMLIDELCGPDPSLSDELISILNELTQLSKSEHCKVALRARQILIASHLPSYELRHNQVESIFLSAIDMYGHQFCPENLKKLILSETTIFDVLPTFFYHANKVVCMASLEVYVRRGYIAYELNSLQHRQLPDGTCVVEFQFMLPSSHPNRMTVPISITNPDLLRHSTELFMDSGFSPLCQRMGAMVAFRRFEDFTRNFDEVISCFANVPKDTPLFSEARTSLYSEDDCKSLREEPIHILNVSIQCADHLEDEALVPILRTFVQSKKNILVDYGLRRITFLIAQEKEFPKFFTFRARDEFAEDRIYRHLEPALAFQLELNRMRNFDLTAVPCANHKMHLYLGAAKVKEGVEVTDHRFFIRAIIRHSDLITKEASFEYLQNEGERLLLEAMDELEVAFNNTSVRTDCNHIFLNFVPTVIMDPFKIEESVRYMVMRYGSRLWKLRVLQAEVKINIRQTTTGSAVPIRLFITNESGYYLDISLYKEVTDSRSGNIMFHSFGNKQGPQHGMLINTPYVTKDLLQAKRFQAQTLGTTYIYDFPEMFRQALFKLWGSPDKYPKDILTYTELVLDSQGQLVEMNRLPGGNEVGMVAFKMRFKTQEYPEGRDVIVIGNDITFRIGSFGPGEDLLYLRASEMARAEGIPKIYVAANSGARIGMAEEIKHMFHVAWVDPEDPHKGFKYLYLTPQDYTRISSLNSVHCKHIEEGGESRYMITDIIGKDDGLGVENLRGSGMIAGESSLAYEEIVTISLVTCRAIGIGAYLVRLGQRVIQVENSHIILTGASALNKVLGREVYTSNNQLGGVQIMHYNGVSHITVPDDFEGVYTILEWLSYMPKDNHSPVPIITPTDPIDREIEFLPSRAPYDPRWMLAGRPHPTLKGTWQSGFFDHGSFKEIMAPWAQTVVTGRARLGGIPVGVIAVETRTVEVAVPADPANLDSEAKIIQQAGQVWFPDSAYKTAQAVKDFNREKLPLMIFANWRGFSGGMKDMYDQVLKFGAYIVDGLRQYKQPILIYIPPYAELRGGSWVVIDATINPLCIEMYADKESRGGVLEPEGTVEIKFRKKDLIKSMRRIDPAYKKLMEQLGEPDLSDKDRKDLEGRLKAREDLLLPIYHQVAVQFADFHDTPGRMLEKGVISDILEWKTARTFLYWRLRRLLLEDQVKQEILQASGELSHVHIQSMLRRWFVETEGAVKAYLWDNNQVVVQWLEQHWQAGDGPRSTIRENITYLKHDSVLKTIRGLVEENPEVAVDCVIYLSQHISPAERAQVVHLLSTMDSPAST

SMILES: COc1ccccc1C(Cn1c(=O)n(C(C)(C)C(=O)O)c(=O)c2c(C)c(-c3ncco3)sc21)O[C@H]1C[C@H]2CO[C@@H](C1)O2 (some centres unmarked) [Example 32]
- IC50 (ACC1): 1.21 nM
- IC50 (ACC2): 2.74 nM

SMILES: COc1ccccc1C(Cn1c(=O)n(C(C)(C)C(=O)O)c(=O)c2c(C)c(-c3ncco3)sc21)O[C@H]1C[C@H]2C[C@H](F)C[C@H]2C1 (stereo partly drawn) [Example 17, 2-[1-[2-[[(3aR,6aS)-5-fluoro-1,2,3,3a,4,5,6,6a-octahydropentalen-2-yl]oxy]-2-(2-methoxyphenyl)ethyl)-5-methyl-6-oxazol-2-yl-2,4-dioxo-thieno[2,3-d]pyrimid-3-yl]-2-methyl-propanoic acid]
- IC50 (ACC1): 2.24 nM

SMILES: COc1ccccc1C(Cn1c(=O)n(C(C)(C)C(=O)O)c(=O)c2c(C)c(-c3ncco3)sc21)O[C@@H]1C[C@@H]2CC(O)(C(F)(F)F)C[C@@H]2C1 (stereo partly drawn) [Example 18, 2-[1-[2-[[(3aR,6aS)-5-hydroxy-5-(trifluoromethyl)-2,3,3a,4,6,6a-hexahydro-1H-pentalen-2-yl]oxy]-2-(2-methoxyphenyl)ethyl]-5-methyl-6-oxazol-2-yl-2,4-dioxo-thieno[2,3-d]pyrimid-3-yl]-2-methyl-propanoic acid]
- IC50 (ACC1): 0.89 nM

SMILES: CCC1(O)C[C@H]2C[C@@H](OC(Cn3c(=O)n(C(C)(C)C(=O)O)c(=O)c4c(C)c(-c5ncco5)sc43)c3ccccc3OC)C[C@H]2C1 (stereo partly drawn) [Example 19, 2-[1-[2-[[(3aR,6aS)-5-ethyl-5-hydroxy-2,3,3a,4,6,6a-hexahydro-1H-pentalen-2-yl]oxy]-2-(2-methoxyphenyl)ethyl)-5-methyl-6-oxazol-2-yl-2,4-dioxo-thieno[2,3-d]pyrimid-3-yl]-2-methyl-propanoic acid]
- IC50 (ACC1): 0.88 nM
- IC50 (ACC2): 5.45 nM

SMILES: COc1ccccc1C(Cn1c(=O)n(C(C)(C)C(=O)O)c(=O)c2c(C)c(-c3ncco3)sc21)O[C@H]1C[C@H]2CC(C#N)C[C@H]2C1 (some centres unmarked) [Example 15, 2-[1-[2-[(5-cyano-1,2,3,3a,4,5,6,6a-octahydropentalen-2-yl)oxy]-2-(2-methoxyphenyl)ethyl]-5-methyl-6-oxazol-2-yl-2,4-dioxo-thieno[2,3-d]pyrimid-3-yl]-2-methyl-propanoic acid]
- IC50 (ACC1): 1.64 nM
- IC50 (ACC2): 6.53 nM

SMILES: COc1ccccc1C(Cn1c(=O)n(C(C)(C)C(=O)O)c(=O)c2c(C)c(-c3ncco3)sc21)O[C@@H]1C[C@@H]2CC(O)(CC#N)C[C@@H]2C1 (stereo partly drawn) [Example 27, 2-[1-[2-[[(3aS,6aR)-5-(cyanomethyl)-5-hydroxy-2,3,3a,4,6,6a-hexahydro-1H-pentalen-2-yl]oxy]-2-(2-methoxyphenyl)ethyl]-5-methyl-6-oxazol-2-yl-2,4-dioxo-thieno[2,3-d]pyrimid-3-yl]-2-methyl-propanoic acid]
- IC50 (ACC1): 1.56 nM
- IC50 (ACC2): 4.8 nM

SMILES: COc1ccccc1C(Cn1c(=O)n(C(C)(C)C(=O)O)c(=O)c2c(C)c(-c3ncco3)sc21)OC1CC2CN(S(C)(=O)=O)CC2C1 (centres unmarked) [Example 10, 2-[1-[2-(2-methoxyphenyl)-2-[(2-methylsulfonyl-3,3a,4,5,6,6a-hexahydro-1H-cyclopenteno[c]pyrrole-5-yl)oxy]ethyl]-5-methyl-6-oxazol-2-yl-2,4-dioxo-thieno[2,3-d]pyrimid-3-yl]-2-methyl-propanoic acid]
- IC50 (ACC1): 0.81 nM
- IC50 (ACC2): 1.76 nM

SMILES: COc1ccccc1C(Cn1c(=O)n(C(C)(C)C(=O)O)c(=O)c2c(C)c(-c3ncco3)sc21)OC1CC2COCC2C1 (centres unmarked) [Example 13, 2-[1-[2-(3,3a,4,5,6,6a-hexahydro-1H-cyclopenteno[c]furan5-oxy)-2-(2-methoxyphenyl)ethyl)-5-methyl-6-oxazol-2-yl-2,4-dioxo-thieno[2,3-d]pyrimid-3-yl]-2-methyl-propanoic acid]
- IC50 (ACC1): 1.76 nM
- IC50 (ACC2): 4.24 nM

SMILES: COc1ccccc1C(Cn1c(=O)n(C(C)(C)C(=O)O)c(=O)c2c(C)c(-c3ncco3)sc21)O[C@@H]1C[C@@H]2C[C@@H](S(C)(=O)=O)C[C@@H]2C1 (stereo partly drawn) [Example 29, 2-[1-[2-[[(3aR,6aS)-5-methylsulfonyl-1,2,3,3a,4,5,6,6a-octahydropentalen-2-yl]oxy]-2-(2-methoxyphenyl)ethyl]-5-methyl-6-oxazol-2-yl-2,4-dioxo-thieno[2,3-d]pyrimid-3-yl]-2-methyl-propanoic acid]
- IC50 (ACC1): 0.47 nM
- IC50 (ACC2): 2.19 nM

SMILES: COc1ccccc1C(Cn1c(=O)n(C(C)(C)C(=O)O)c(=O)c2c(C)c(-c3ncco3)sc21)O[C@@H]1C[C@@H]2CC(F)(F)C[C@@H]2C1 (stereo partly drawn) [Example 21, 2-[1-[2-[[(3aR,6aS)-5,5-difluoro-2,3,3a,4,6,6a-hexahydro-1H-pentalen-2-yl]oxy]-2-(2-methoxyphenyl)ethyl)-5-methyl-6-oxazol-2-yl-2,4-dioxo-thieno[2,3-d]pyrimid-3-yl]-2-methyl-propanoic acid]
- IC50 (ACC1): 1.43 nM
- IC50 (ACC2): 4.07 nM

SMILES: COc1ccccc1C(Cn1c(=O)n(C(C)(C)C(=O)O)c(=O)c2c(C)c(-c3ncco3)sc21)O[C@H]1C[C@H]2C[C@@H](O)C[C@H]2C1 (stereo partly drawn) [Example 1, 2-[1-[2-[[(3aS,6aR)-5-hydroxy-1,2,3,3a,4,5,6,6a-octahydropentalen-2-yl]oxy]-2-(2-methoxyphenyl)ethyl]-5-methyl-6-oxazol-2-yl-2,4-dioxo-thieno[2,3-d]pyrimid-3-yl]-2-methyl-propanoic acid]
- IC50 (ACC1): 0.93 nM

SMILES: COc1ccccc1C(Cn1c(=O)n(C(C)(C)C(=O)O)c(=O)c2c(C)c(-c3ncco3)sc21)O[C@@H]1C[C@@H]2CC(C)(O)C[C@@H]2C1 (stereo partly drawn) [Example 14, 2-[1-[2-[[(3aR,6aS)-5-hydroxy-5-methyl-2,3,3a,4,6,6a-hexahydro-1H-pentalen-2-yl]oxy]-2-(2-methoxyphenyl)ethyl]-5-methyl-6-oxazol-2-yl-2,4-dioxo-thieno[2,3-d]pyrimid-3-yl]-2-methyl-propanoic acid]
- IC50 (ACC1): 1.43 nM

SMILES: COc1ccccc1C(Cn1c(=O)n(C(C)(C)C(=O)O)c(=O)c2c(C)c(-c3ncco3)sc21)O[C@@H]1C[C@@H]2CC(O)(C3CC3)C[C@@H]2C1 (stereo partly drawn) [Example 23, 2-[1-[2-[[(3aR,6aS)-5-cyclopropyl-5-hydroxy-2,3,3a,4,6,6a-hexahydro-1H-pentalen-2-yl]oxy]-2-(2-methoxyphenyl)ethyl]-5-methyl-6-oxazol-2-yl-2,4-dioxo-thieno[2,3-d]pyrimid-3-yl]-2-methyl-propanoic acid]
- IC50 (ACC1): 0.67 nM
- IC50 (ACC2): 1.13 nM

SMILES: COc1ccccc1C(Cn1c(=O)n(C(C)(C)C(=O)O)c(=O)c2c(C)c(-c3ncco3)sc21)O[C@@H]1C[C@@H]2CC(O)(C#N)C[C@@H]2C1 (stereo partly drawn) [Example 26, 2-[1-[2-[[(3aR,6aS)-5-cyano-5-hydroxy-2,3,3a,4,6,6a-hexahydro-1H-pentalen-2-yl]oxy]-2-(2-methoxyphenyl)ethyl]-5-methyl-6-oxazol-2-yl-2,4-dioxo-thieno[2,3-d]pyrimid-3-yl]-2-methyl-propanoic acid]
- IC50 (ACC1): 1.43 nM
- IC50 (ACC2): 5.4 nM

SMILES: COc1ccccc1C(Cn1c(=O)n(C(C)(C)C(=O)O)c(=O)c2c(C)c(-c3ncco3)sc21)O[C@H]1C[C@H]2CC(O)C(O)[C@H]2C1 (stereo partly drawn) [Example 22, 2-[1-[2-[[(2S,3aS,6aR)-4,5-dihydroxy-1,2,3,3a,4,5,6,6a-octahydropentalen-2-yl]oxy]-2-(2-methoxyphenyl)ethyl]-5-methyl-6-oxazol-2-yl-2,4-dioxo-thieno[2,3-d]pyrimid-3-yl]-2-methyl-propanoic acid]
- IC50 (ACC1): 1.55 nM
- IC50 (ACC2): 8.44 nM
